The text below walks through data of patent US20230255954A1, “INTERLEUKIN 33 (IL-33) INHIBITION FOR TREATMENT OF CANCER, FIBROSIS AND INFLAMMATION” (The General Hospital Corporation, priority 2020, published 2023).

Assay [1] has as its system mouse Il33 gene promoter (IL-33 promoter-luci reporter). Description: IL-33 promoter luciferase screen of FDA-approved Drug Library. In kind it is cell-based. Particulars: 10 μM, 24 hours; IL-33 promoter-luci vs control-luci stable Pam212 cells; 1056 molecules tested. Here is the method:
Pam212 cells were grown at 37° C. in DMEM (Thermo Fisher Scientific, Waltham, Mass., catalog no. 11995065) supplemented with 10% fetal bovine serum (Thermo Fisher Scientific, catalog no. 26140079), 1× penicillin-streptomycin-glutamine (Thermo Fisher Scientific, catalog no. 10378016), 1×MEM non-essential amino acids solution (Thermo Fisher Scientific, catalog no. 11140050), 1×HEPES (Thermo Fisher Scientific, catalog no. 15630080) and 0.1% 2-Mercaptoethanol (Thermo Fisher Scientific, catalog no. 21985023). PyMT cell lines (derived from a primary breast tumor of MMTV-PyMrg mouse on a C57BL/6 background) were grown at 37° C. in RPMI Medium 1640 (Thermo Fisher Scientific, catalog no. 11875093) supplemented with 10% fetal bovine serum, 1× penicillin-streptomycin-glutamine and 0.1% 2-Mercaptoethanol. IL-33 promoter-luci vector (GeneCopoeia, Rockville, Md., catalog no. MPRM3494-PG02) or Control-luci vector (deletion form of IL-33 promoter region from IL-33 promoter-luci vector) or Poly (I:C) (Invivogen, San Diego, Calif., catalog no. tlrl-pic) in Pam212 cells were performed using Lipofectamine 2000 (Thermo Fisher Scientific, catalog no. 11668019) according to the manufacturer's instructions.
After transfection of plasmids in Pam212 cells, cells were incubated with 3 μg/ml of puromycin (Invivogen, San Diego, Calif., catalog no. ant-pr-1) for positive transfected cell selection. After following 2 days, medium was changed new puromycin contained medium for further selection. After following 2 days, cells were moved to new plate with puromycin contained medium. Puromycin selection was repeated for five times more.
1000 stable cells were seed to 384 wells (Corning, Glendale, Ariz., catalog no. 3570) and each of plate was incubated 24 hours. Following day, 10 μM of FDA-approved Drug Library compounds (Selleckchem, Houston, Tex., catalog no. L1300) were added to each well. After 24 hours, 5 μL of luciferase buffer from Pierce Gaussia luciferase glow assay kit (Thermo Fisher Scientific, Waltham, Mass., catalog no. 16160) were added each well and incubated for 5 min. Each plate was read and measured with luminescence by EnVision 2014 plate reader (Perkin Elmer, Waltham, Mass., catalog no. 2014 EnVision).
To make small molecule screening platform, we generated both IL-33 promoter-luci and control-luci over-expressed stable epithelial cell line (Pam212) by multiple puromycin selection strategy (FIG. 10A). To find molecules that can inhibit IL-33 expression, we tested 1056 FDA-approved small molecules against our reporter cell line. […] To find bona fide inhibitors of IL-33, we checked RNA level of Il33 by qPCR in cells treated with inducer of IL-33 expression, Poly (I:C). After cells were treated by Poly (I:C), RNA level of Il33 was increased compared to carrier group. However, Il33 RNA level was decreased by pitavastatin and tropisetron in Poly I:C-treated cells (FIGS. 10C and D). […] Finally, endogenous IL-33 protein level was decreased after treatment with pitavastatin in a dose-dependent manner (FIG. 10F). Therefore, pitavastatin is a small inhibitor molecule of IL-33.

For assay [2], the system named is Il33 expression induced by Poly (I:C) in Pam212 cells. Description: Il33 RNA by qPCR in Poly (I:C)-treated Pam212 cells. In kind it is cell-based, mouse. The procedure: (§1) Pam212 cells were grown at 37° C. in DMEM (Thermo Fisher Scientific, Waltham, Mass., catalog no. 11995065) supplemented with 10% fetal bovine serum (Thermo Fisher Scientific, catalog no. 26140079), 1× penicillin-streptomycin-glutamine (Thermo Fisher Scientific, catalog no. 10378016), 1×MEM non-essential amino acids solution (Thermo Fisher Scientific, catalog no. 11140050), 1×HEPES (Thermo Fisher Scientific, catalog no. 15630080) and 0.1% 2-Mercaptoethanol (Thermo Fisher Scientific, catalog no. 21985023). […]
(§2) Mouse dorsal skin samples were homogenized and lysed in RLT lysis solution (QIAGEN, catalog no. 79216)/0.1% MeOH using Mini-BeadBeater-8 (BioSpec Products, Inc., Bartlesville, Okla.). Total RNA was extracted using an RNeasy micro kit and quantified using NanoDrop ND-1100 (NanoDrop Technologies, Wilmington, Del.). cDNA samples were synthesized from 1 μg of total RNA using Invitrogen SuperScripts III Reverse Transcriptase (Thermo Fisher Scientific, catalog no. 18080085). Expression levels of all cDNA samples were determined with LightCycler 480 system (Roche Molecular Systems Inc., Pleasanton, Calif.) using TaqMan Universal Master Mix II (Thermo Fisher Scientific, catalog no. 44-400-40). […]

Assay [3] relates to endogenous Il33 expression in PyMT breast cancer cell line. Description: Endogenous Il33 RNA in PyMT breast cancer cell line. In kind it is cell-based, mouse. The procedure: as §1, §2
The target in assay [4] is T1, RUNX2 transcription factor (mouse, UniProt Q08775 1-607, limits assumed).
T1 construct: Detected by immunoblot (anti-RUNX2 clone D1L7F) after immunoprecipitation of IL-33; The species follows from the mouse cell lines; also called endogenous RUNX2
Description: immunoprecipitation with anti-IL-33 antibody from transfected Pam212 lysate, immunoblot for RUNX2. Here is the method: (G) Immunoblot for interaction between nuclear IL-33 and RUNX2. After Pam212 cells were transfected with IL-33 full length or cytokine domain for 24 hours, cell lysates were subjected to immunoprecipitation with anti-IL-33 antibody followed by immunoblot analysis.
Cell lysates were prepared in buffer-A consisting of 50 mM Tris-HCL (pH 8.0), 150 mM NaCl, 0.5% NP-40 and 1× protease inhibitor cocktail. After confirming the concentration of total proteins, the cell lysates were incubated with IL-33 (Nessy-1) overnight at 4° C. and incubated with 30 μL of 50% slurry of protein A-conjugated Sepharose (Cell Signaling Technology, Danvers, Mass., catalog no. 9863S) for the next 2 hours. The samples were precipitated, washed three times with buffer-A containing 300 mM NaCl. Samples were added to 25 μL SDS sampling buffer (Boston Bioproducts, catalog no. BP-111R) and boiled at 95° C. for 10 min. Samples were subjected to SDS-polyacrylamide gel electrophoresis followed by immunoblot analysis.

T1 sequence (Q08775 whole entry): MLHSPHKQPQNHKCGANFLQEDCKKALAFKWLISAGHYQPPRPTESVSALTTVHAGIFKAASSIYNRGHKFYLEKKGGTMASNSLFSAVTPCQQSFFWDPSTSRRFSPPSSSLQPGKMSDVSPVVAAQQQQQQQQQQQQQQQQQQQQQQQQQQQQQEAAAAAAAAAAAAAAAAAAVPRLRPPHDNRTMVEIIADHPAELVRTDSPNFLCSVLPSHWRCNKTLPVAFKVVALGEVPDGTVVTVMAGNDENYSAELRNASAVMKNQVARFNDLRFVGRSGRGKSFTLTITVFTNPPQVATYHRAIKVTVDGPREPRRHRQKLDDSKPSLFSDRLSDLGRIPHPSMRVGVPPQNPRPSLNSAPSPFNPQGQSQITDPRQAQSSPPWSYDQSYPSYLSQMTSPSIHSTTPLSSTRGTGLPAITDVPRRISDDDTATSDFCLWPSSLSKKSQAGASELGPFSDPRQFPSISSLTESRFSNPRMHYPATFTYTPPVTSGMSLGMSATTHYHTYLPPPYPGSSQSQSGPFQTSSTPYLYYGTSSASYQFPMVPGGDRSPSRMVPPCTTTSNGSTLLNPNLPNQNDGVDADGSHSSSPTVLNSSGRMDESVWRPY

With `CCCSc1nc(N[C@@H]2C[C@H]2c2ccc(F)c(F)c2)c2nnn([C@@H]3C[C@H](OCCO)[C@@H](O)[C@H]3O)c2n1` [ticagrelor], in assay [1], the “IL-33/Control luminescence ratio (inhibitory effect against IL-33 reporter)” value is given as “small molecule candidates”.
Still for that read-out and setting: the result for `CC1(C)[C@@H](O[C@H]2O[C@H](C(=O)O)[C@@H](O)[C@H](O)[C@H]2O[C@@H]2O[C@H](C(=O)O)[C@@H](O)[C@H](O)[C@H]2O)CC[C@]2(C)[C@H]3C(=O)C=C4[C@@H]5C[C@@](C)(C(=O)O)CC[C@]5(C)CC[C@@]4(C)[C@]3(C)CC[C@@H]12` [ammonium glycyrrhizinate] reads “small molecule candidates”.
Still for that read-out and setting: the entry for `CCCCCCCCCCCCCCCC[N+](C)(C)C` [cetrimonium bromide] is “small molecule candidates”.
For `CN1[C@@H]2CC[C@H]1C[C@@H](OC(=O)c1c[nH]c3ccccc13)C2` [tropisetron], the “Il33 RNA level” value in assay [2] is “decreased”. Moreover, the “endogenous Il33 RNA level” value in assay [3] is given as “inhibitory effect”. Besides, the “IL-33/Control luminescence ratio (inhibitory effect against IL-33 reporter)” value in assay [1] is “small molecule candidates”.

B1: HA-IL-33 cytokine domain (other, mouse, UniProt Q8BVZ5 109-266, looked up)
chain: SIQGTSLLTQSPASLSTYNDQSVSFVLENGCYVINVDDSGKDQEQDQVLLRYYESPCPASQSGDGVDGKKLMVNMSPIKDTDIWLHANDKDYSVELQRGDVSPPEQAFFVLHKKSSDFVSFECKNLPGTYIGVKDNQLALVEEKDESCNNIMFKLSKI
notes: domain: cytokine domain; Overexpressed in Pam212 cells for 24 hours; localized to the cytoplasm; not shown: HA tag from the pcDNA3.1-HA vector
Take B1: the binding result in assay [4] is on record as “no binding”.
